{"source": "paper PMC4301629", "about": "(PLoS ONE, 2015)", "key": {"[1]": {"biological_target": "T1, α1A-AR (Homo sapiens, UniProt P35348)", "T1 sequence (P35348 1-466)": "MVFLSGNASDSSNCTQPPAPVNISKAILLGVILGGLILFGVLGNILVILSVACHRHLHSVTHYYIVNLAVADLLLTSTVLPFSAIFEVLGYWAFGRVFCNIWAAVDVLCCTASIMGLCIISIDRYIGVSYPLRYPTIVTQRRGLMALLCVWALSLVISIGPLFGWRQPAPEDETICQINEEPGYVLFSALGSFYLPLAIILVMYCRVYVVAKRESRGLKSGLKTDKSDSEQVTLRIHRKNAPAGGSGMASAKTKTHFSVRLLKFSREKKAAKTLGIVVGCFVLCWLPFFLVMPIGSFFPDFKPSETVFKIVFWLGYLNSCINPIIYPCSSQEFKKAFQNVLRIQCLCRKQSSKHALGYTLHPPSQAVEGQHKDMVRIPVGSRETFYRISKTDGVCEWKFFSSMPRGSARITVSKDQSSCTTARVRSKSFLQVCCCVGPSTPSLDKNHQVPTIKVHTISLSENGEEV", "test": "IP accumulation (IP-One HTRF) in α1A-AR transduced HEK-293/EBNA cells", "assay_type": "cell-based", "design": "expressed in transfected cells; host or cells: HEK-293/EBNA (baculovirus transduction, NaBu induction)", "conditions": "α1A-AR transduced HEK-293/EBNA; Iso up to 10 mM", "description": "Prior to experiments, cells were transduced with baculovirus strains designed for transient expression of α1A-AR or aldehyde oxidase (negative control). This was performed by incubating cells with virus (MOI 100–150) for 3 to 4 h, followed by exchange into fresh serum free growth medium supplemented with 4 mM sodium butyrate (NaBu). Cells were grown for another 14 to 18 h and then examined for agonist-evoked responses in transient Ca^2+ release, IP accumulation or pERK activation assays. The surface receptor expression density was determined by flow cytometry via immunofluorescence labeling of an N-terminal HA epitope tag on the receptor and radioligand binding in partially purified membranes.\n(§1) After 10–20 minutes, 10 μL of agonist was added followed by incubation for 5 to 30 minutes. Stimulation was stopped by addition of lysis buffer. Second messenger levels were determined using a homogeneous immunoassay method with time-resolved FRET detection (IP-One HTRF, Cisbio International) according to protocols provided by the supplier. Sample fluorescence was measured with a Nanoscan plate reader (IOM, Berlin). Each data point represents the average of quadruplicate determinations and each experiment was performed at least two times independently."}, "[2]": {"test_system": "CCR5_CHO cells", "test": "Ca2+ transient response in CCR5_CHO negative control cells", "assay_type": "cell-based, Chinese hamster", "conditions": "S4 Fig.", "description": "Cells were resuspended in Hank’s balanced salt solution (Invitrogen) supplemented with 2 mM CaCl2, 10 mM HEPES pH 7.4, 2.5 mM probenecid, plus 1g/L each of glucose and bovine serum albumin (BSA), and seeded in poly-D-lysine coated 96-well black plates with transparent bottom (Costar) at a density of 50,000 cells/0.1 mL per well. Cells were then incubated for 1 h at 37°C with an additional 0.1 mL of buffer containing 4 μM fluo3-AM that was diluted from a stock solution containing 1 mM fluo3-AM dye in DMSO with 10% pluronic acid. After dye loading incubation, plates were washed twice with 100 μL of buffer and refilled with 100 μL of assay buffer. In experiments testing the effect of antagonists, 25 μL of buffer from wells of washed cells were replaced with 25 μL of vehicle or 4× antagonist solution. […] Agonist-evoked Ca^2+ mobilization responses of cell populations were monitored at room temperature simultaneously in all wells of the assay plate using the plate-imaging fluorometric reader FLIPR (MDS Analytical Technologies, Sunnyvale, CA). Measurements consisted of recording baseline fluorescence signal for 10 seconds followed by addition of the test substance and 1–2 minute readings of Ca^2+ transient responses as reported by changes in Ca^2+ dye fluorescence (excitation 488 nm, emission 510–570 nm). […]"}, "[3]": {"biological_target": "β3-AR", "conditions": "in presence of GTP; cited from earlier work"}, "[4]": {"test_system": "HEK293/EBNA cells", "test": "IP accumulation (IP-One HTRF) in untransduced HEK-293/EBNA cells", "assay_type": "cell-based"}, "[5]": {"biological_target": "T1, α1A-AR", "test": "IP accumulation in α1A-AR_CHO stable cells", "assay_type": "cell-based", "design": "expressed in transfected cells", "conditions": "Iso up to 1 mM", "description": "as §1\nIP1, IP2, and IP3 levels were determined via LC-MS. Plots are representative of three independent experiments with each data point being the average of triplicates."}}, "data": [{"smiles": "CC(C)NCC(O)c1ccc(O)c(O)c1", "note": "(stereo not drawn) [Iso, isoproterenol]", "values": [{"measurement": "IP accumulation", "setting": "[1]", "value": "no significant accumulation of IP was detected"}, {"measurement": "Ca2+ transient response", "setting": "[2]", "value": "not observed"}, {"measurement": "Ki", "setting": "[3]", "value": 1.6, "unit": "µM"}, {"measurement": "EC50 IP", "setting": "[4]; HEK293/EBNA untransduced", "value": "BQL"}, {"measurement": "IP formation", "setting": "[4]; untransduced cells, data not shown", "value": "not detectable"}, {"measurement": "IP accumulation", "setting": "[5]", "value": "no IP accumulation could be detected"}]}]}
